The text below walks through data of patent US12084444B2, “Spiro-lactam NMDA modulators and methods of using same” (Tenacia Biotechnology (Hong Kong) Co., Limited, priority 2016, dated 2024).

Data set [1] can be described thus: IV pharmacokinetics. On the set-up: species or system Sprague Dawley rats. The settings on record: Sprague Dawley, in vivo, rat, 2 mg/kg, normal saline. How it is done: Sprague Dawley rats were dosed intravenously using a normal saline formulation containing 2 mg/kg of the compounds identified in the below table. The table below summarizes the results of the IV pharmacokinetics.

Data set [2] addresses T1, NMDAR2A expressing HEK cell membranes (Homo sapiens, UniProt Q05586+Q12879).
T1 construct: expressed in transfected cells; host or cells: HEK cells (membrane extract)
Put plainly: NMDAR agonist assay, [3H]MK-801 binding, NMDAR2A. It is filed as biochemical. Further details: key to NMDAR2A B: log EC50: 0=−; ≥1×10^−9 M (e.g., −8)=+; <1×10^−9 M (e.g., −10)=++. The settings on record: 0.25 h, 50 μM glutamate; read-out: NMDAR2A A: % maximal [3H]MK-801 binding relative to 1 mM glycine. Put shortly:
(§1)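 HEK membranes (300 μg protein) expressing each subtype were preincubated 15 min at 25 °C with 50 μM glutamate and compound (1×10^−15–1×10^−7 M) or 1 mM glycine. [3H]MK-801 (0.3 μCi) binding then ran 15 min under nonequilibrium conditions, followed by filtration. EC50 and % maximal binding against 1 mM glycine came from three-parameter fits of baseline-subtracted DPM (N=2).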

Data set [3] concerns the target T2, NMDAR2A expressing HEK cell membranes (Homo sapiens, UniProt Q12879).
T2 construct: expressed in transfected cells; host or cells: HEK cells (membrane extract)
Put plainly: NMDAR agonist assay, [3H]MK-801 binding, NMDAR2A. In kind it is biochemical. Conditions: 50 μM glutamate. On the set-up: key to NMDAR2A B: log EC50: 0=−; ≥1×10^−9 M (e.g., −8)=+; <1×10^−9 M (e.g., −10)=++. The method in brief: as §1

Data set [4] has as its target T3, NMDAR2D expressing HEK cell membranes (Homo sapiens, UniProt O15399).
T3 construct: expressed in transfected cells; host or cells: HEK cells (membrane extract)
As to the kind of experiment: NMDAR agonist assay, [3H]MK-801 binding, NMDAR2D. It is filed as biochemical. The settings on record: 50 μM glutamate. How it is done:
(§2) Assays were conducted as described by Moskal et al., “GLYX-13: a monoclonal antibody-derived peptide that acts as an N-methyl-D-aspartate receptor modulator,” Neuropharmacology, 49, 1077-87, 2005. These studies were designed to determine if the test compounds act to facilitate NMDAR activation in NMDAR2A, NMDAR2B, NMDAR2C or NMDAR2D expressing HEK cell membranes as measured by increases in [^3H]MK-801 binding.
(§3) In the assay, 300 μg of NMDAR expressing HEK cell membrane extract protein was preincubated for 15 minutes at 25° C. in the presence of saturating concentrations of glutamate (50 μM) and varying concentrations of test compound (1×10^−15 M-1×10^−7 M), or 1 mM glycine. Following the addition of 0.3 μCi of [^3H]MK-801 (22.5 Ci/mmol), reactions were again incubated for 15 minutes at 25° C. (nonequilibrium conditions). Bound and free [^3H]MK-801 were separated via rapid filtration using a Brandel apparatus.
(§4) In analyzing the data, the DPM (disintegrations per minute) of [^3H]MK-801 remaining on the filter were measured for each concentration of test compound or for 1 mM glycine. The DPM values for each concentration of a ligand (N=2) were averaged. The baseline value was determined from the best fit curve of the DPM values modeled using the GraphPad program and the log(agonist) vs. response(three parameters) algorithm was then subtracted from all points in the dataset. The % maximal [^3H]MK-801 binding was then calculated relative to that of 1 mM glycine: all baseline subtracted DPM values were divided by the average value for 1 mM glycine. The EC50 and % maximal activity were then obtained from the best fit curve of the % maximal [^3H]MK-801 binding data modelled using the GraphPad program and the log(agonist) vs. response(three parameters) algorithm.
The tables below summarize the results for the wild type NMDAR agonists NMDAR2A, NMDAR2B, NMDAR2C, and NMDAR2D, and whether the compound is not an agonist (−), is an agonist (+), or is a strong agonist (++), where column A is based on the % maximal [^3H]MK-801 binding relative to 1 mM glycine (−=0; <100%=+; and >100%=++); and column B is based on log EC50 values (0=−; ≥1×10^−9 M (e.g., −8)=+; and <1×10^−9 M (e.g., −10)=++).

The target in data set [5] is T4, NMDAR2C expressing HEK cell membranes (Homo sapiens, UniProt Q14957).
T4 construct: expressed in transfected cells; host or cells: HEK cells (membrane extract)
T4 sequence (Q14957 20-1233, other chains not shown): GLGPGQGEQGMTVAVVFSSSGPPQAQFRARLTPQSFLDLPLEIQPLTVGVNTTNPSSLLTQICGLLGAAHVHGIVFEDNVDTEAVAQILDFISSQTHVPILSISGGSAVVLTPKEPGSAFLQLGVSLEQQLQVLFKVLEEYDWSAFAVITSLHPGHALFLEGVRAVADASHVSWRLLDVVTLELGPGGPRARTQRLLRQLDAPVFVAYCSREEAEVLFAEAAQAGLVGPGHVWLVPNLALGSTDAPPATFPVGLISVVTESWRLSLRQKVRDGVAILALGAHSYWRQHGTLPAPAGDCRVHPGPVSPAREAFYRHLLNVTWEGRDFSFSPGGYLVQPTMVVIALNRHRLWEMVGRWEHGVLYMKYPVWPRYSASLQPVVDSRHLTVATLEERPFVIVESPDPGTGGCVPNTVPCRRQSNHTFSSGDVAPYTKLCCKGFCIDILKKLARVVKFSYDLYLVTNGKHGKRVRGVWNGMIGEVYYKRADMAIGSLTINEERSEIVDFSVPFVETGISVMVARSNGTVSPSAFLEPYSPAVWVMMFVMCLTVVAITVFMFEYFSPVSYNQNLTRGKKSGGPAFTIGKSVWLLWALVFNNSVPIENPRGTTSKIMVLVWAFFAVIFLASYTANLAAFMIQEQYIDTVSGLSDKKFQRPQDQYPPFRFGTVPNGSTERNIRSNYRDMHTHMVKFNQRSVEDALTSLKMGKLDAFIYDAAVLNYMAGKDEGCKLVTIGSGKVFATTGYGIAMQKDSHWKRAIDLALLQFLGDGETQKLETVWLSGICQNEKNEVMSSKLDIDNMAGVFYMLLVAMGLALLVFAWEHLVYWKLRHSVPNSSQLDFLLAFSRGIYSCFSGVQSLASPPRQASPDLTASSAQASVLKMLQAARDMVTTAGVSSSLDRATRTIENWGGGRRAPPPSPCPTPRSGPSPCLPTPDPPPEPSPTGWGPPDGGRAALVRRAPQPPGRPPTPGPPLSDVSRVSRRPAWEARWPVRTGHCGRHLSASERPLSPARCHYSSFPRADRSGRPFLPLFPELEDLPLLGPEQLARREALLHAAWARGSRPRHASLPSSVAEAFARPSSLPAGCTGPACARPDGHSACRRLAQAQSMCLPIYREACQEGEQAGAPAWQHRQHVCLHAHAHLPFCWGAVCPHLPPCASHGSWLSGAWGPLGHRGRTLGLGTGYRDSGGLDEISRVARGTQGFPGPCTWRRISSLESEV
As to the kind of experiment: NMDAR agonist assay, [3H]MK-801 binding, NMDAR2C. The settings on record: 50 μM glutamate. In kind it is biochemical. The protocol:
as §2, §3
as §4, with “algorithm. […]” for “algorithm.”

Data set [6] can be described thus: Oral pharmacokinetics (plasma, brain, CSF). It is filed as in vivo, Sprague Dawley rats. The settings on record: rat, per os, 10 mg/kg. How it is done: In another experiment, Sprague Dawley rats were dosed per os using a normal saline formulation containing 10 mg/kg of the compounds identified in the table below. Plasma, brain, and CSF samples were analyzed at various time points over a 24 hour period. The table below summarizes the results of the oral pharmacokinetics.

Data set [7] concerns the target T5, NMDAR2B expressing HEK cell membranes (Homo sapiens, UniProt Q05586+Q13224).
T5 construct: expressed in transfected cells; host or cells: HEK cells (membrane extract)
As to the kind of experiment: NMDAR agonist assay, [3H]MK-801 binding, NMDAR2B. In kind it is biochemical. The settings on record: 50 μM glutamate. The method in brief: as §1

Data set [8] deals with Sprague Dawley rats. Put plainly: Porsolt forced swim test. It is filed as in vivo. Conditions: 0.1 mg/kg; for % reduction in float time: relative to vehicle group. The protocol: A non-clinical in vivo pharmacology study (Porsolt assay) was performed to measure antidepressant-like effects. A negative control (0.5% sodium carboxymethyl cellulose in 0.9% sterile saline vehicle) and a positive control (fluoxetine) are shown for comparison against test compound. The study allowed for the evaluation of the effects of each compound on the Porsolt forced swim test as assessed by the rats' response (reduced floating time) during a 5-minute swimming test.
Male 2-3 month old Sprague Dawley rats were used (Harlan, Indianapolis, IN). Rats were housed in Lucite cages with aspen wood chip bedding, maintained on a 12:12 light:dark cycle (lights on at 5 AM), and given ad libitum access to Purina lab chow (USA) and tap water throughout the study.
The Porsolt forced swim test adapted for use in rats was performed as described by Burgdorf et al., (The long-lasting antidepressant effects of rapastinel (GLYX-13) are associated with a metaplasticity process in the medial prefrontal cortex and hippocampus. Neuroscience 308:202-211, 2015). Animals were placed in a 46 cm tall×20 cm in diameter clear glass tube filled to 30 cm with tap water (23±1° C.) for 15 min on the first day (habituation) and 5 min on the subsequent test day. Positive control fluoxetine was dosed 3 times (24 h, 5 h and 1 h) prior to testing. Animals were tested 1 h or 24 h post-dosing with the test compounds or vehicle. Animals received a 15 min habituation session 1 day before the 5 min test. Water was changed after every other animal. Animals were videotaped, and floating time as defined as the minimal amount of effort required to keep the animals head above water was scored offline by a blinded experimenter with high inter-rater reliability (Pearson's r>0.9).
Each compound tested at dose level shown. Significance vs. vehicle group for each experiment is marked. […] A compound marked “No” was not statistically significant from vehicle. Data was averaged for test compound and vehicle groups (N approximately 8 per group) and the percent reduction in floating for group treated with test compound relative to group treated with vehicle is shown.

Some results are limits rather than exact numbers.

T5 sequence (Q13224 27-1484, other chains not shown): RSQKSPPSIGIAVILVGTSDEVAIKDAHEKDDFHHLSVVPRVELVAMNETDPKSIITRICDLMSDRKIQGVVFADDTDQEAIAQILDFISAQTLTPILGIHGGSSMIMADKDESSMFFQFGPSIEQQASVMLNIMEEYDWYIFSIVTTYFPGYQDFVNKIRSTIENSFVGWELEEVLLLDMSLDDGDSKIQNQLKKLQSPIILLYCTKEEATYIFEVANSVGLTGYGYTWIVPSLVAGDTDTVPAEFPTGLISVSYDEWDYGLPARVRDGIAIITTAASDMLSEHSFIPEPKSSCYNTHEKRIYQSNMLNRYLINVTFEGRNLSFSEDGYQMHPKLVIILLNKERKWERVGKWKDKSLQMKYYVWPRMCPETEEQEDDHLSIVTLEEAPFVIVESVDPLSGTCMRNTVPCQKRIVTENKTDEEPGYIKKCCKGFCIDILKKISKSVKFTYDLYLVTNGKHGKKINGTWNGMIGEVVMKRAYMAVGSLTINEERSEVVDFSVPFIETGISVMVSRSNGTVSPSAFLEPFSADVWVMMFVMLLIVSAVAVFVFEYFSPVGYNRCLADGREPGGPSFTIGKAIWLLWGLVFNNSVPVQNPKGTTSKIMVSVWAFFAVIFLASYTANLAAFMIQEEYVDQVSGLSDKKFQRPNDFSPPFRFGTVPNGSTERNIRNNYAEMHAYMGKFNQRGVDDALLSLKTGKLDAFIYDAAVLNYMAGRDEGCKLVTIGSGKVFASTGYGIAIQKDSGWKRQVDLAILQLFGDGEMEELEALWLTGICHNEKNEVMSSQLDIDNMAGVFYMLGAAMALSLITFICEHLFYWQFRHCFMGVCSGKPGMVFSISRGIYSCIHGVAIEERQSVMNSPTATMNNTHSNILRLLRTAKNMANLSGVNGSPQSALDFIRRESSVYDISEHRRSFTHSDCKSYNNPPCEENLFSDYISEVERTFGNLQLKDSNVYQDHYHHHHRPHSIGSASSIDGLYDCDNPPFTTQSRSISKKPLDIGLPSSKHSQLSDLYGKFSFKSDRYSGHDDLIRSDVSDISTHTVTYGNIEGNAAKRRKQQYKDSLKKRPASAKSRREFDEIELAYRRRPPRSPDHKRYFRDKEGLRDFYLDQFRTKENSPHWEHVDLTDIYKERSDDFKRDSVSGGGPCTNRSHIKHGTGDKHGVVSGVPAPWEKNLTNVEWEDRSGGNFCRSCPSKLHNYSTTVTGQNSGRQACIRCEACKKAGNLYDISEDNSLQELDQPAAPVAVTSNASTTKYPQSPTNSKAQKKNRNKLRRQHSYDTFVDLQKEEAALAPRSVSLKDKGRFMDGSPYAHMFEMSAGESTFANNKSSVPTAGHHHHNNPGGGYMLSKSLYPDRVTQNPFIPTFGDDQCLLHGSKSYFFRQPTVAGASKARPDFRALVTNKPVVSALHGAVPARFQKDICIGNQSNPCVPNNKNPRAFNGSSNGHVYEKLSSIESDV
T3 sequence (O15399 28-1336, other chains not shown): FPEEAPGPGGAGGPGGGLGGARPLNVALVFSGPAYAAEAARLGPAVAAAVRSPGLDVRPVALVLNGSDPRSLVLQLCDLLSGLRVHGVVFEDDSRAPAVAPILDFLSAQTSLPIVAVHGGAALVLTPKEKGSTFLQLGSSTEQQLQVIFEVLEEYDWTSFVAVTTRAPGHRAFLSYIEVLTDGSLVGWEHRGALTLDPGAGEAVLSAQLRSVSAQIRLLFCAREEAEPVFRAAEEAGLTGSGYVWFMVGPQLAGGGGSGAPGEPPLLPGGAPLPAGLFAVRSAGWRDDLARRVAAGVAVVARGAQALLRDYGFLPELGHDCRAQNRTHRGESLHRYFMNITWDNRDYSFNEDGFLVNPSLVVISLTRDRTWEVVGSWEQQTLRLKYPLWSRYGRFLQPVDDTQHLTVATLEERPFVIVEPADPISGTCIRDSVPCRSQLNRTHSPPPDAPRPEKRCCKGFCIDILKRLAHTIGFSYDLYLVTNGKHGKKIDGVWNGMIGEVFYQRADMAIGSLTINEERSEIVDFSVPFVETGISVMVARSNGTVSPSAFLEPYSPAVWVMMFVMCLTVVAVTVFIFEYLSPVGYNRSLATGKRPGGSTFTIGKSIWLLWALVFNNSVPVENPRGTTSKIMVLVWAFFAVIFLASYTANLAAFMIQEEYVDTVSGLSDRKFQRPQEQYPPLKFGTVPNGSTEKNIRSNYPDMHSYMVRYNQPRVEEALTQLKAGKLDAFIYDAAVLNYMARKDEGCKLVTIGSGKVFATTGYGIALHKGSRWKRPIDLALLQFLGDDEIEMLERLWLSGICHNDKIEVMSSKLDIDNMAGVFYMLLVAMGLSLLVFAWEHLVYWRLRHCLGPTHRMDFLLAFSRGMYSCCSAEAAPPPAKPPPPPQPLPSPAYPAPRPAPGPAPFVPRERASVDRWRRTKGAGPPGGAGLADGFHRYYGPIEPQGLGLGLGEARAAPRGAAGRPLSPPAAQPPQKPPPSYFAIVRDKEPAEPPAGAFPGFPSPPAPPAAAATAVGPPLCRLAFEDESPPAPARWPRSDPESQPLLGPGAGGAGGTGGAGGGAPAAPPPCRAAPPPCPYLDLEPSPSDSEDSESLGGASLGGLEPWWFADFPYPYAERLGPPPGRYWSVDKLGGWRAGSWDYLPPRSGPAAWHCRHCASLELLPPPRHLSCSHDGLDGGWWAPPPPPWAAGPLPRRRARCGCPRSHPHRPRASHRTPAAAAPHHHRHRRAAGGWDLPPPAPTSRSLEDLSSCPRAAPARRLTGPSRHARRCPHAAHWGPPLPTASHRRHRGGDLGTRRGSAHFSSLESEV

`COc1ccc(CN2C[C@@]3(CCNC(=O)C3)C2=O)cc1` [Compound AA-2, 2-(4-methoxybenzyl)-2,7-diazaspiro[3.5]nonane-1,6-dione]: in data set [1], the area under the curve AUC(0-t) stood at 3370 ng·h/mL, the C0 is 1990 ng/mL, the clearance is 9.82 mL/min/kg and the half-life is 75 min. Moreover, the Vd in data set [1] (read-out: Vss) amounted to 0.54 L/kg. In addition, the Emax in data set [2] came out at 0%. The “NMDAR2A B: log EC50” value in data set [3] is given as “−”. In data set [4], the “NMDAR2D A: % maximal [3H]MK-801 binding relative to 1 mM glycine” value is listed as “+ (<100%=+)”. The “NMDAR2C A: % maximal [3H]MK-801 binding relative to 1 mM glycine” value in data set [5] is given as “− (−=0)”. In data set [6] (Sprague Dawley, plasma, po), this molecule gave an exposure AUC(0-t) of 17300 ng·h/mL and a bioavailability of 100%. For the same molecule, the time of peak concentration (Tmax) in data set [6] (Sprague Dawley, plasma, po, normal saline) amounted to 15 min. The molecule also showed a Cmax in data set [6] (Sprague Dawley, po, plasma) of 11300 ng/mL. In data set [6] (CSF), the “CSF Cmax” value is 1476.3 ng/mL. Besides, the “Brain Cmax” value in data set [6] (brain) is on record as 1107.2 ng/mL. The concentration for a half-maximal effect (EC50) in data set [7] (read-out: NMDAR2B B: log EC50 (converted)) is less than 1 nM. For the same molecule, the Emax in data set [7] (0.25 h, read-out: NMDAR2B A: % maximal [3H]MK-801 binding relative to 1 mM glycine) was less than 100%. Besides, in data set [8] (1 h post-dose), the Significance vs. vehicle entry is recorded as “Yes (found to be statistically significant (p<=0.05) from vehicle at dose level shown)” and the “% reduction in float time” value is 51.5%. In data set [8] (24 h post-dose), the Significance vs. vehicle entry is reported as “Yes (found to be statistically significant (p<=0.05) from vehicle at dose level shown)” and the “% reduction in float time” value came to 77.80%.

One may read the AUC(0-t) as exposure summed from dosing to a finite time, without extrapolation to infinity. As usually defined, the clearance is the volume of plasma or blood freed of the substance per unit of time. Usually half-life stands for the time in which the quantity being followed falls by half. A word on the bioavailability: it is the share of a dose that reaches the circulation, judged against a reference dose that is usually intravenous. One may read the Tmax as the time from dosing to the highest level. As usually defined, the Cmax is the peak of the concentration-time curve. The term EC50 denotes the concentration giving half of the maximal effect.
